Reference: US20150259344A1, “IMIDAZOLE DERIVATIVE” (DAINIPPON SUMITOMO PHARMA CO., LTD., priority 2012, published 2015)

Molecular target: T1, human α7 nAChR (Homo sapiens, UniProt P36544)
T1 construct: expressed in transfected cells
Assay: Evaluation of PAM activity with human α7 nACh receptor stably expressing cells (aequorin luminescence, FDSS7000)
Format: cell-based
Details: for activity at 10 µM: read-out: α7PAM (%) @10 μM; for PAM activity for α7 nAChR (in words): comparison across Tables 18 to 25
Protocol: Evaluation of PAM activity with human α7 nACh receptor stably expressing cells
(1) Human α7 nAChR stably expressing cells
Human α7 nAChR stably expressing cells were generated and cultured.
Thus, the cells were subcultured.
Seven days after subculturing, the cells were treated with TrypLE Express to collect them when they were about 80% confluent.
On the next day after seeding, Viviren (cat#E649X, Promega, Madison, Wis., USA) was added to the medium so that the final concentration could be 4 μM (15 μL/well). The plates were centrifuged and then placed in the dark for 4 hours at room temperature.
(2) Preparation of the Test Samples
Each of the test compounds was dissolved in DMSO to prepare each test sample at a concentration of 1000-fold the final concentration. To the solution was added Hanks/20 mM HEPES/0.2% BSA (cat#A3803, Sigma, St. Louis, Mo., USA), and the concentration was adjusted to 6-fold the final concentration.
(3) Evaluation of PAM Activity
FDSS7000 (Hamamatsu Photonics) was used to detect the luminescence signal evoked by α7 nAChR stimulation. The cells and a luminescent substrate were put on a plate, and the test sample was added thereto. […] The ratio of the RLU (Max-Min) of the test-compound-containing wells to that of the control wells was defined as PAM activity.

[1] = 10 μM test compound, ACh at EC20, ratio of RLU (Max-Min) to control wells

T1 sequence (P36544 23-502): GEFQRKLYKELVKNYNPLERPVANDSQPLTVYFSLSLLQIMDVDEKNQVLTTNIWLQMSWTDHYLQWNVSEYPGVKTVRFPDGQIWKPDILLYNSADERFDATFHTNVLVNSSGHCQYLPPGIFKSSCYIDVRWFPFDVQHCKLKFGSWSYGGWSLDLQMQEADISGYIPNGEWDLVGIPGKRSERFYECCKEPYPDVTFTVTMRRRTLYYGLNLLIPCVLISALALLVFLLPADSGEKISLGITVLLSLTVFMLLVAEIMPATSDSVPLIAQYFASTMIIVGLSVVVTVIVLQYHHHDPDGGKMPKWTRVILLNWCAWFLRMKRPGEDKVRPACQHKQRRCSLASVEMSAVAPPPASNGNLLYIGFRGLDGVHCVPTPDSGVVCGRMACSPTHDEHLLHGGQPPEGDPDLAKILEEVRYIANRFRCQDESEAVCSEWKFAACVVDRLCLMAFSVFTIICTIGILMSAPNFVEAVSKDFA

SMILES	activity at 10 µM [1] [%]	other results
O=C(NC1CCOCC1)N1CCC(n2cnc(-c3cccc(C(F)(F)F)c3)c2Cl)CC1 [Example 94, 4-{5-chloro-4-[3-(trifluoromethyl)phenyl]-1H-imidazol-1-yl}-N-(tetrahydro-2H-pyran-4-yl)piperidine-1-carboxamide]	981	–
N#Cc1c(-c2ccccc2)ncn1C1CCN(C(=O)NC2CCC(F)(F)CC2)CC1 [Example 99]	–	PAM activity for α7 nAChR (in words): stronger PAM activity than others
CC(C)(C)NC(=O)N1CCC(n2cnc(-c3ccccc3)c2C#N)CC1 [Example 100]	708	–
Cc1c(-c2ccccc2)ncn1C1CCN(C(=O)NC2CCCCC2)CC1 [Example 102]	641	–
CCc1c(-c2ccccc2)ncn1C1CCN(C(=O)NC2CCCCC2)CC1 [Example 103]	452	–
O=C(NC1CCCCC1)N1CCC(n2cnc(-c3ccccc3)c2C2CC2)CC1 [Example 108]	576	–
CC(C)(C)NC(=O)N1CCC(n2cnc(-c3ccccc3)c2C2CC2)CC1 [Example 109]	457	–
O=C(NC1CCCCC1)N1CCC(n2cnc(-c3ccccc3)c2CO)CC1 [Example 110]	201	–
CC(C)(C)NC(=O)N1CCC(n2cnc(-c3ccccc3)c2CO)CC1 [Example 111]	153	–
O=C(NC1CCC(F)(F)CC1)N1CCC(n2cnc(-c3ccccc3)c2C2CC2)CC1 [Example 113]	882	–
Cc1nc(-c2ccccc2)cn1C1CCN(C(=O)NC2CCCCC2)CC1 [Example 114]	133	–
O=C(NC1CCCCC1)N1CCC(n2cc(-c3ccccc3)nc2Cl)CC1 [Example 116]	131	–
O=C(NC1CCCCC1)N1CCC(n2cnc(-c3ccc(Cl)s3)c2)CC1 [Example 117]	853	–
O=C(NC1CCC(F)(F)CC1)N1CCC(n2cnc(-c3ccc(Cl)s3)c2)CC1 [Example 118]	–	PAM activity for α7 nAChR (in words): stronger PAM activity than others
O=C(NC1CCC(F)(F)CC1)N1CCC(n2cnc(-c3ccnc(Cl)c3)c2)CC1 [Example 120]	208	–
O=C(NC1CCCC1)N1CCC(n2cnc(-c3cccs3)c2)CC1 [Example 121]	201	–
Cc1ccc(-c2cn(C3CCN(C(=O)NC4CCCC4)CC3)cn2)s1 [Example 122]	459	–
O=C(NC1CCCCC1)N1CCC(n2cnc(-c3cccs3)c2)CC1 [Example 129]	–	α7PAM (%) @10 μM [1]: 330%

The next lines start with results.

activity at 10 µM [1] [%]	SMILES	other results
345	O=C(NC1CCCCC1)N1CCC(n2cnc(-c3cccs3)c2)CC1 [Example 123]	–
572	Cc1ccc(-c2cn(C3CCN(C(=O)NC4CCCCC4)CC3)cn2)s1 [Example 124]	–
466	O=C(NC1CCC(F)(F)CC1)N1CCC(n2cnc(-c3cccs3)c2)CC1 [Example 125]	–
780	Cc1ccc(-c2cn(C3CCN(C(=O)NC4CCC(F)(F)CC4)CC3)cn2)s1 [Example 126]	–
170	COC1CCC(NC(=O)N2CCC(n3cnc(-c4cccs4)c3)CC2)CC1 (centres unmarked) [Example 127]	–
188	COC1CCC(NC(=O)N2CCC(n3cnc(-c4ccc(C)s4)c3)CC2)CC1 (centres unmarked) [Example 128]	–
738	O=C(NC1CCCCC1)N1CCC(n2cnc(-c3ccc(C(F)(F)F)cn3)c2)CC1 [Example 131]	–
151	O=C(NC1CCCCC1)N1CCC(n2cnc(-c3ccccn3)c2)CC1 [Example 132]	–
101	O=C(NC1CCCCC1)N1CCC(n2cnc(-c3cccnc3)c2)CC1 [Example 133]	–
171	O=C(NC1CCCCC1)N1CCC(n2cnc(-c3ccccn3)c2Cl)CC1 [Example 134]	–
154	O=C(NC1CCCCC1)N1CCC(n2cnc(-c3ccncc3)c2Cl)CC1 [Example 135]	–
309	O=C(NC1CCC(F)(F)CC1)N1CCC(n2cnc(-c3ccncc3)c2Cl)CC1 [Example 136]	–
328	O=C(NC1CCC(F)(F)CC1)N1CCC(n2cnc(-c3ccccn3)c2Cl)CC1 [Example 137]	–
597	O=C(C1CCC(F)(F)CC1)N1CCC(n2cnc(-c3ccc(C(F)(F)F)cc3)c2)CC1 [Example 138]	–
